Key:
[1] = tested on: ALK F1174C/V; details: Crizotinib-resistant mutation; cited from earlier work
[2] = target: ALK G1202R (Homo sapiens, UniProt Q9UM73, G1202R); details: Crizotinib-resistant mutation; cited from earlier work
[3] = target: ALK [WT] (Homo sapiens, UniProt Q9UM73); assay: Kinase inhibition assay, ALK [WT]; assay type: biochemical
Procedure: (§1) Compound preparation: The test compounds were dissolved in DMSO to make 20 mM stock solutions. The compounds were diluted in DMSO to 0.1 mM (a dilution with 100 times the final concentration) before use, and a 3-fold series gradient dilution with 11 concentrations was made. Dilutions with 4 times of the final concentration were prepared by diluting with buffer when dosing.
(§2) Kinase assay: after preparing the buffer solution, the enzyme was mixed with pre-diluted compounds with different concentrations, and placed at room temperature for 30 minutes in duplicate. The corresponding substrate and ATP were added thereto and reacted at room temperature for 60 minutes (both a negative and a positive control were set). After the reaction, antibody was added for detection, and after incubation at room temperature for 60 minutes, Evnvision detection was carried out, and data was collected. Data was analyzed and fit according to XLfit5 software. IC50 was calculated by the following formula: (IC50=[(ABS test−ABS begin)/(ABS control−ABS begin)]×100).

[4] = target: ALK [L1196M] (Homo sapiens, UniProt Q9UM73, L1196M); assay: Kinase inhibition assay, ALK [L1196M]; assay type: biochemical
ALK [L1196M], sequence (Q9UM73 19-1620 L1196M): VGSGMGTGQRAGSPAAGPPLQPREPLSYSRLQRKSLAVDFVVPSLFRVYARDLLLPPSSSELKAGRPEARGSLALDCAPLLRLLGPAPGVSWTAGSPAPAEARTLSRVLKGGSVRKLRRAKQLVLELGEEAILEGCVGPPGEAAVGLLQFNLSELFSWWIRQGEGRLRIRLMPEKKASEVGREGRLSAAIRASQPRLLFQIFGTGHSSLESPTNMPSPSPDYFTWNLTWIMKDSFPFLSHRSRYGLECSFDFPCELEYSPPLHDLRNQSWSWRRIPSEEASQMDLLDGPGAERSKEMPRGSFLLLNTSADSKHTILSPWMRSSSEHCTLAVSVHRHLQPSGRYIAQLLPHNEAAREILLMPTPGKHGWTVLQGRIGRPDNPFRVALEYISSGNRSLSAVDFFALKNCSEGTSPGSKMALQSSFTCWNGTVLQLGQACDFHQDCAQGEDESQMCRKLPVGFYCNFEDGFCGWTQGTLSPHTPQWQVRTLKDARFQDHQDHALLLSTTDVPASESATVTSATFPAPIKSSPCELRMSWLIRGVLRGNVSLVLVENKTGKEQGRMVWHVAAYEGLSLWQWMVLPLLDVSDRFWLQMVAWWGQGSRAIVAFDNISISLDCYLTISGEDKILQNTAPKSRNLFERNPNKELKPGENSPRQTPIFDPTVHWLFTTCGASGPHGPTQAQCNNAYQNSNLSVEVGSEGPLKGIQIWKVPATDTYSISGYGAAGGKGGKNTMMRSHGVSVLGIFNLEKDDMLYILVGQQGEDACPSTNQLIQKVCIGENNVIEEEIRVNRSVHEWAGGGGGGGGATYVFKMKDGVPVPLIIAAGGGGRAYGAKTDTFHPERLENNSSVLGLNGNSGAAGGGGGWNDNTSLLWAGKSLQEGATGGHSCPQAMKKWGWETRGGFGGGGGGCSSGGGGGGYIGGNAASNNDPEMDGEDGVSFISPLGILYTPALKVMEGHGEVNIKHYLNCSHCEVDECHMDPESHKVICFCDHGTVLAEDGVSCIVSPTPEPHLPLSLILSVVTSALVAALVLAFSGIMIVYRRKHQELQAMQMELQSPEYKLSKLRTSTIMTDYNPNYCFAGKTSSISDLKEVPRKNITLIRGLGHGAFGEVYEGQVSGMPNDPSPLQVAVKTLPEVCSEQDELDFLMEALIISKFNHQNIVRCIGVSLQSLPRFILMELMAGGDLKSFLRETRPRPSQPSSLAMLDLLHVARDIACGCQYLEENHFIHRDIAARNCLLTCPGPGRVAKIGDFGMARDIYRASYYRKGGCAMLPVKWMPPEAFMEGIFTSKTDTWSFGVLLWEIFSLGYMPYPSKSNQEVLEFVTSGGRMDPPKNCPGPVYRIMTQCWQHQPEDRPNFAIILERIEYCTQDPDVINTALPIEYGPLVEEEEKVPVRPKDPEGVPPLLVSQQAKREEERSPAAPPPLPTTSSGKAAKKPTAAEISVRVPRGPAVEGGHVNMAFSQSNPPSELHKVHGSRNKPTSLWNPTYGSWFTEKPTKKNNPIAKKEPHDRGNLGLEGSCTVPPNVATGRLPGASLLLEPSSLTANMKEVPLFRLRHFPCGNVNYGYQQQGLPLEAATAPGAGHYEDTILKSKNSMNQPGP
Procedure: as §1, §2

[5] = tested on: BaF3 parental; assay: Cytotoxicity test (CellTiter-Glo), BaF3 parental; assay type: cell-based; details: Mus musculus, 72 hours, read-out: IC50(nM) parental (Ba/F3)
Procedure: (§3) The in vitro anti-proliferative activity of the compounds of the present disclosure against three types of cells that are cultured in vitro was tested by CellTiter-Glo method.
(§4) Cell lines: BaF3 parental; BaF3 [EML4-ALK] (From WuXi PharmaTech) and BaF3 [EMF4-AFK F1196M] (From WuXi PharmaTech); wherein, BaF3 parental was cultured in RPMI1640 medium containing 10 ng/ml IL-3, 10% fetal bovine serum, 100 U/ml penicillin, and 100 μg/ml streptomycin, BaF3 [EMF4-AFK] and BaF3 [EMF4-AFK F1196M] were cultured in RPMI1640 medium containing 10% fetal bovine serum, 100 U/ml penicillin, and 100 μg/ml streptomycin.
(§5) Reagents and materials: RPMI-1640 (GIBCO, Cat. No. A10491-01); fetal bovine serum (GIBCO, Cat. No. 10099141); 0.25% trypsin-EDTA (GIBCO, Cat. No. 25200); penicillin-streptomycin, liquid (GIBCO, Cat. No. 15140-122); DMSO (Sigma, Cat. No. D2650); CellTiter-Glo Test Kit (Promega, Cat. No. G7572), and 96-well plate (Corning, Cat. No. 3365).
(§6) 1. The test compounds were dissolved in DMSO to make stock solutions and subjected to a series gradient dilution to give solutions with 10-fold working concentration.
(§7) 2. The cells in the logarithmic growth phase were diluted with the culture solution to adjust to the specific cell concentration, 90 μi of cell suspension was added to the 96-well plate to make the cell density reach the specified concentration. The plate was incubated in a incubator at 37° C., containing 5% carbon dioxide gas overnight.
(§8) 3. 10 μl drug solutions were added to each well of the 96-well plate inoculated with cells. 10 concentrations of the compounds were tested starting from the highest concentration of 20 μM with a 3-fold series gradient dilution in duplicate.
(§9) 4. After continuously cultured for 72 hours, the cells were detected by CellTiter-Glo for the cell viability. The dose-effect curve was made using GraphPad Prism software and IC50 was calculated.

[6] = target: T1, BaF3 [EML4-ALK] (Homo sapiens, UniProt Q9UM73); assay: Cytotoxicity test (CellTiter-Glo), BaF3 [EML4-ALK]; assay type: cell-based; details: 72 hours, CellTiter-Glo; read-out: IC50(nM) ALK (Ba/F3)
T1 construct: IC50(nM) ALK (Ba/F3); other: 72 hours, CellTiter-Glo; BaF3 [EML4-ALK]; fused on or other part: Q9HC35 (Echinoderm microtubule-associated protein-like 4)
T1 sequence (Q9UM73 whole entry, change not shown, the tested form may be a part): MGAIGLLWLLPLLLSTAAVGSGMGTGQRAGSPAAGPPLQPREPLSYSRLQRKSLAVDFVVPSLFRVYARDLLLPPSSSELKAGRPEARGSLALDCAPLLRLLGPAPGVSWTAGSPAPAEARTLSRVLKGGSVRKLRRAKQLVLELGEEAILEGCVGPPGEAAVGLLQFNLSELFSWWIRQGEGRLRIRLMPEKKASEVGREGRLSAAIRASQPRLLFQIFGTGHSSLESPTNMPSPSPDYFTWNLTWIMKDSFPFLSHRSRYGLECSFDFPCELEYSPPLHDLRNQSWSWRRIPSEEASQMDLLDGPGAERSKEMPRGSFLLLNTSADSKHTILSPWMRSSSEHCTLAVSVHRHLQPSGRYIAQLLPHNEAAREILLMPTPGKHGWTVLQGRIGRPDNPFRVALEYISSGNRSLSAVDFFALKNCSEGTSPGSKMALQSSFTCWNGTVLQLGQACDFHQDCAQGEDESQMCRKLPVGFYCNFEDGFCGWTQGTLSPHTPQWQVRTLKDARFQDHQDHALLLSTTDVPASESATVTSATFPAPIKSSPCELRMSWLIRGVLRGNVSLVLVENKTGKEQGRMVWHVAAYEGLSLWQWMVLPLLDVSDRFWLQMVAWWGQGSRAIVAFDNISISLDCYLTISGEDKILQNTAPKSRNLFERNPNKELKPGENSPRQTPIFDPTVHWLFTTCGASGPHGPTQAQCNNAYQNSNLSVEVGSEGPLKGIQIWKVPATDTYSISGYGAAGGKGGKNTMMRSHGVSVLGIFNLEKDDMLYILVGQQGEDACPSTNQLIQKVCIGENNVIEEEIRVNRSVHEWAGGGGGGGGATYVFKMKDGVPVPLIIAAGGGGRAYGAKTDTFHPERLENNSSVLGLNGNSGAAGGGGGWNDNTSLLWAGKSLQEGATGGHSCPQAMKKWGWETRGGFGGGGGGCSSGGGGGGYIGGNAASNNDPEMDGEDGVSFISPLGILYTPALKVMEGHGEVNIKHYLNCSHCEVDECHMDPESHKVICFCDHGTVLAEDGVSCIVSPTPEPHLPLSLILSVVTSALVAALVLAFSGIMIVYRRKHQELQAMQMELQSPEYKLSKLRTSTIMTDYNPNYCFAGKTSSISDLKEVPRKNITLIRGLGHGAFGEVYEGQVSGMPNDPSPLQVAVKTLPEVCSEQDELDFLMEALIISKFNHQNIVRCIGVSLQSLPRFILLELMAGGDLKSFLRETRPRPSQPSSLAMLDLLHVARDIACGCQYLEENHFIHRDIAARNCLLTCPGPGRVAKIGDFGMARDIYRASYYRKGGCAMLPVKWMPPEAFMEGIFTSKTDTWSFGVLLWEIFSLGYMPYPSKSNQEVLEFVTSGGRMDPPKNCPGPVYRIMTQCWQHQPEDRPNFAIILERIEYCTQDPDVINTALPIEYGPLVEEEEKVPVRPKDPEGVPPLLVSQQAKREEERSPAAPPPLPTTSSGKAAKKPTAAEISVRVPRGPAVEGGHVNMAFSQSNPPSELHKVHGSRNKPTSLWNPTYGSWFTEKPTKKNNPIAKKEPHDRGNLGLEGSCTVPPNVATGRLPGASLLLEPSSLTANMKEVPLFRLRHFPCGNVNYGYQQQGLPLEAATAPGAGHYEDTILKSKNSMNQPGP
Procedure: as §3, §4, §5, §6, §7, §8, §9

[7] = tested on: BaF3 [EML4-ALK]; assay: Cytotoxicity test (CellTiter-Glo), BaF3 [EML4-ALK]; assay type: cell-based; details: Ba/F3 cells
Procedure: as §3, §4, §5, §6, §7, §8, §9

[8] = target: T2, ALK[L1196M] (Ba/F3) (Homo sapiens, UniProt Q9UM73, L1196M, cells depend on it); assay: Cytotoxicity test (CellTiter-Glo), BaF3 EML4-ALK L1196M; assay type: cell-based; details: 72 hours, CellTiter-Glo; read-out: IC50(nM) ALK[L1196M] (Ba/F3)
T2 construct: IC50(nM) ALK[L1196M]; (Ba/F3); other: 72 hours, CellTiter-Glo; BaF3 [EMF4-AFK F1196M]; fused on or other part: Q9HC35 (Echinoderm microtubule-associated protein-like 4)
T2 sequence (Q9UM73 whole entry L1196M, the tested form may be a part): as the sequence (Q9UM73 whole entry, change not shown, the tested form may be a part) above, with L1196M counted along it
Procedure: as §3, §4, §5, §6, §7, §8, §9

[9] = tested on: ALK[L1196M] (Ba/F3); assay: as above; assay type: cell-based; details: Ba/F3 cells
Procedure: as §3, §4, §5, §6, §7, §8, §9

[10] = Metabolic stability in human liver microsomes; assay type: in vitro ADME; details: pH 7.4, 1 μM compound, 0.5 mg/mL protein; for microsomal CLint at 1 μM: read-out: CLint (uL/min/mg), Human liver microsome experiment; for half-life at 1 μM: read-out: t1/2 (min), Human liver microsome experiment
Procedure: (§10) Experiments in microsomes: Human liver microsomes: 0.5 mg/mL, Xenotech; Rat liver microsomes: 0.5 mg/mL, Xenotech; Coenzyme (NADPH/NADH): 1 mM, Sigma Life Science; Magnesium chloride: 5 mM, 100 mM phosphate buffer (pH 7.4).
(§11) Preparation of stock solution: Powder of the example compounds was accurately weighed and dissolved in DMSO to 5 mM. Preparation of phosphate buffer (100 mM, pH7.4): A pre-formulated 0.5M potassium dihydrogen phosphate (150 mL) was mixed with 0.5M dibasic potassium phosphate (700 mL). The pH of the mixture was adjusted to 7.4 with 0.5M dibasic potassium phosphate solution. The mixture was diluted 5-fold with ultrapure water before use, and magnesium chloride was added to obtain a phosphate buffer (100 mM) containing 100 mM potassium phosphate, 3.3 mM magnesium chloride, pH7.4. A NADPH regeneration system solution (containing 6.5 mM NADP, 16.5 mM G-6-P, 3 U/mL G-6-PD, 3.3 mM magnesium chloride) was prepared and placed on wet ice prior to use. Preparation of stop solution: acetonitrile solution containing 50 ng/mL propranolol hydrochloride and 200 ng/mL tolbutamide (internal standard). 25057.5 μL of phosphate buffer (pH 7.4) was taken into a 50 mL centrifuge tube, to which 812.5 μL human liver microsomes were added, and mixed to obtain a liver microsome dilution solution with a protein concentration of 0.625 mg/mL. 25057.5 μL of phosphate buffer (pH 7.4) was taken into a 50 mL centrifuge tube, to which 812.5 μL SD rat liver microsomes were added, and mixed to obtain a liver microsome dilution solution with a protein concentration of 0.625 mg/mL.
(§12) Incubation of the samples: The stock solution of the respective compound was respectively diluted to 0.25 mM with an aqueous solution containing 70% acetonitrile, and used as a working solution, ready for use. 398 μL of the dilution solution of human liver microsomes or rat liver microsome were added to a 96-well incubation plate (N=2), respectively, and 2 μL of 0.25 mM working solution was added and mixed.
(§13) Metabolic stability assay: 300 μL of pre-chilled stop solution was added to each well of a 96-well deep well plate and placed on ice as a stop plate. The 96 well incubation plate and NADPH regeneration system were placed in a 37° C. water bath box, shaken at 100 rpm and pre-incubated for 5 min. 80 μL of incubation solution was taken out from each well of the incubation plate and added to the stop plate, mixed, and replenished with 20 μL of NADPH regeneration system solution as a 0-min sample. 80 μL of NADPH regeneration system solution was added to each well of the incubation plate to start the reaction and start counting. […] Separately, 100 μL of the reaction solution was taken at 10, 30, and 90 min reaction, respectively, added to a stop plate, and vortexed for 3 minutes to terminate the reaction. The stop plate was centrifuged at 5000×g at 4° C. for 4 min. 100 μL of the supernatant was added to a 96-well plate to which 100 μL of distilled water was previously added, mixed, and analyzed by LC-MS/MS.
(§14) Data analysis: The peak areas of the corresponding compound and internal standard were detected by LC-MS/MS system, and the ratio of the peak area of the compound to the internal standard was calculated.

[11] = Metabolic stability in rat liver microsomes; assay type: in vitro ADME; details: SD, pH 7.4, 1 μM compound, 0.5 mg/mL protein; for microsomal CLint at 1 μM: read-out: CLint (uL/min/mg), Rat liver microsome experiment; for half-life at 1 μM: read-out: t1/2 (min), Rat liver microsome experiment
Procedure: as §10, §11, §12, §13, §14

ALK [WT], sequence (Q9UM73 19-1620): as the sequence (Q9UM73 19-1620 L1196M) above, with M1178L counted along it
ALK G1202R, sequence (Q9UM73 19-1620 G1202R): as the sequence (Q9UM73 19-1620 L1196M) above, with M1178L, G1184R counted along it

In the case of Cc1cc(Nc2ncc(Cl)c(Nc3ccccc3S(=O)(=O)C(C)C)n2)c(OC(C)C)cc1C1CCNCC1 [Ceritinib], the “effect on F1174C/V” value [1] is given as “no effect” and the “effect on G1202R” value [2] is given as “neither of them has effect”.

For CNC(C)(C)c1ccc(Nc2ncc(Cl)c(Nc3ccccc3P(C)(C)=O)n2)c(OC)c1 [Example 15, (2-((5-chloro-2-((2-methoxy-4-(2-(methylamino)propan-2-yl)phenyl)amino)pyrimidin-4-yl)amino)phenyl)dimethylphosphine oxide], the IC50 [3] was ≤ 2 nM, the IC50 [4] was ≤ 2 nM and the IC50 [5] was ≥ 1000 nM. The GI50 [6] was 50 to 100 nM, the “Selectivity parental/ALK” value [7] was <50 and the GI50 [8] was 100 to 200 nM. The “Selectivity parental/ALK[L1196M]” value [9] was <50, the microsomal CLint at 1 μM [10] was 20.7 µL/min/mg and the half-life at 1 μM [10] was 66.9 min. For the same compound, the microsomal CLint at 1 μM [11] was 17.6 µL/min/mg and the half-life at 1 μM [11] was 78.8 min.

In the case of COc1cc(C(C)CN)ccc1Nc1ncc(Cl)c(Nc2ccccc2P(C)(C)=O)n1 (stereo not drawn) [Example 16, (2-((2-((4-(1-aminopropan-2-yl)-2-methoxyphenyl)amino)-5-chloropyrimidin-4-yl)amino)phenyl)dimethylphosphine oxide], the IC50 [3] is reported as 5 to 10 nM, the IC50 [4] is reported as 5 to 10 nM and the IC50 [5] is reported as ≥ 1000 nM. The GI50 [6] was 200 to 1000 nM, the “Selectivity parental/ALK” value [7] was 50 to 100 and the GI50 [8] was 200 to 1000 nM. For the same compound, the “Selectivity parental/ALK[L1196M]” value [9] was <50, the microsomal CLint at 1 μM [10] was 21.5 µL/min/mg and the half-life at 1 μM [10] was 64.6 min. The microsomal CLint at 1 μM [11] was 11.7 µL/min/mg and the half-life at 1 μM [11] was 118 min.

In the case of COc1cc(C(C)CN(C)C)ccc1Nc1ncc(Cl)c(Nc2ccccc2P(C)(C)=O)n1 (stereo not drawn) [Example 17, (2-((5-chloro-2-((4-(1-(dimethylamino)propan-2-yl)-2-methoxyphenyl)amino)pyrimidin-4-yl)amino)phenyl)dimethylphosphine oxide], the IC50 [3] is reported as 5 to 10 nM, the IC50 [4] is reported as 5 to 10 nM and the IC50 [5] is reported as ≥ 1000 nM. For the same compound, the GI50 [6] was 25 to 50 nM, the “Selectivity parental/ALK” value [7] was 100 to 200 and the GI50 [8] was 100 to 200 nM. The “Selectivity parental/ALK[L1196M]” value [9] was 50 to 100, the microsomal CLint at 1 μM [10] was 18.6 µL/min/mg and the half-life at 1 μM [10] was 74.3 min. The microsomal CLint at 1 μM [11] was 29.7 µL/min/mg and the half-life at 1 μM [11] was 46.7 min.

In the case of COc1cc(CCN(C)C)c(C)cc1Nc1ncc(Cl)c(Nc2ccccc2P(C)(C)=O)n1 [Example 20, (2-((5-chloro-2-((4-(2-(dimethylamino)ethyl)-2-methoxy-5-methylphenyl)amino)pyrimidin-4-yl)amino)phenyl)dimethylphosphine oxide], the IC50 [3] is reported as 2 to 5 nM, the IC50 [4] is reported as 2 to 5 nM and the IC50 [5] is reported as ≥ 1000 nM. The GI50 [6] was 25 to 50 nM, the “Selectivity parental/ALK” value [7] was 50 to 100 and the GI50 [8] was 25 to 50 nM. The “Selectivity parental/ALK[L1196M]” value [9] was 50 to 100, the microsomal CLint at 1 μM [10] was 5.4 µL/min/mg and the half-life at 1 μM [10] was 259 min. The microsomal CLint at 1 μM [11] was 32.3 µL/min/mg and the half-life at 1 μM [11] was 42.9 min.

With CNCCc1cc(OC)c(Nc2ncc(Cl)c(Nc3ccccc3P(C)(C)=O)n2)cc1C [Example 21, (2-((5-chloro-2-((2-methoxy-5-methyl-4-(2-(methylamino)ethyl)phenyl)amino)pyrimidin-4-yl)amino)phenyl)dimethylphosphine oxide] the IC50 [3] was 2 to 5 nM, the IC50 [4] was 5 to 10 nM and the IC50 [5] was ≥ 1000 nM. The GI50 [6] was 100 to 200 nM, the “Selectivity parental/ALK” value [7] was <50 and the GI50 [8] was 200 to 1000 nM. The “Selectivity parental/ALK[L1196M]” value [9] was <50, the microsomal CLint at 1 μM [10] was 27.7 µL/min/mg and the half-life at 1 μM [10] was 50 min. The microsomal CLint at 1 μM [11] was 7.2 µL/min/mg and the half-life at 1 μM [11] was 193 min.
